Results: US10350199B2, “3-(1h-pyrrolo[2,3-b]pyridin-2-yl)-1h-indazoles and therapeutic uses thereof” (Samumed, LLC, priority 2015, dated 2019)

Assays:
Format in all cases: cell-based
[1] = test system: primary human fibroblasts derived from IPF patients (LL29 cells) treated with TGF-β1; assay: Inhibition of the fibrotic process: αSMA staining in TGF-β1 treated LL29 fibroblasts; settings: Fibroblast; for EC50: 96 h, LL29 cells, TGF-β1 20 ng/mL, 4 days, % αSMA positive cells; for inhibition at 10 µM: read-out: percent inhibition at 10 μM
Protocol: Representative compounds were screened using primary human fibroblasts (derived from IPF patients) treated with TGF-β1 to determine their ability to inhibit the fibrotic process.
LL29 cells are plated at 1,500 cells/well in 80 μL/well F12 medium supplemented with 1% Fetal Bovine Serum. […] Wells treated with TGF-β1 and containing DMSO were used as controls. […] Following incubation for 4 days, SYTOX green nucleic acid stain (Life Technologies [Thermo Fisher Scientific]) was added to the wells at a final concentration of 1 μM and incubated at room temperature for 30 min.

[2] = test system: Wnt activity (Sp5-Luc reporter, SW480 colon carcinoma cells); assay: Wnt activity screening assay, Sp5-Luc reporter gene in SW480 cells; settings: Homo sapiens; for inhibition at 10 µM: SW480, read-out: percent inhibition at 10 μM; for EC50: Sp5-Luc reporter, SW480 cells, overnight incubation
Excerpt: The screening assay for Wnt activity is described as follows. Reporter cell lines can be generated by stably transducing cancer cell lines (e.g., colon cancer) or primary cells (e.g., IEC-6 intestinal cells) with a lentiviral construct that includes a Wnt-responsive promoter driving expression of the firefly luciferase gene.
SW480 colon carcinoma cells were transduced with a lentiviral vector expressing luciferase with a human Sp5 promoter consisting of a sequence of eight TCF/LEF binding sites. SW480 cells stably expressing the Sp5-Luc reporter gene and a hygromycin resistance gene were selected by treatment with 150 μg/mL of hygromycin for 7 days. These stably transduced SW480 cells were expanded in cell culture and used for all further screening activities. […] For Sp5-Luc reporter gene assays, the cells were plated at 4,000 cells/well in 384-well plates with medium containing 1% fetal bovine serum and incubated overnight at 37° C. and 5% CO2. Following incubation, 20 μl of BrightGlo luminescence reagent (Promega) was added to each well of the 384-well assay plates. The plates were placed on an orbital shaker for 2 min and then luminescence was quantified using the Envision (Perkin Elmer) plate reader. Readings were normalized to DMSO only treated cells, and normalized activities were utilized for EC50 calculations using the dose-response log (inhibitor) vs. response -variable slope (four parameters) nonlinear regression feature available in GraphPad Prism 5.0 (or Dotmatics).

SW480 colon cancer cells = assay: Cell viability assay (CellTiter-Blue), SW480 cells, four days; settings: Homo sapiens; for EC50: 96 h, SW480 cell viability, four days, CellTiter-Blue; for inhibition at 10 µM: SW480, read-out: percent inhibition at 10 μM
Protocol: Representative compounds were screened using the following assay procedure to assess the effect on cell viability as described below.
Approximately 2×10^3 SW480 colon cancer cells were seeded into each well and allowed to incubate in the presence or absence of compound for four days at 37° C./5% CO2. Eight replicates of DMSO-treated cells served as controls and cells treated with compound were performed in duplicate.
After incubation, 20 μL of CellTiter-Blue (Promega) was added to each well allowed to incubate for approximately 3 hours. This reagent was a buffered solution which contains resazurin, metabolically active cells were able to reduce rezarurin (blue) into resorufin (pink) which was highly fluorescent. This measured fluorescence was used as a readout for cell viability.

[3] = test system: IL-6 (THP-1 human monocyte cell line); assay: IL-6 inhibition in LPS-stimulated THP-1 cells (HTRF); settings: for EC50: IL-6 inhibition, LPS-stimulated THP-1 cells, HTRF; for inhibition at 10 µM: THP-1, read-out: percentage in parentheses beside EC50 >10 (IL-6 inhibition)
Protocol: THP-1 cells were cultured in basal media with 1% FBS for 24 hours before the start of the assay. […] THP-1 cells were plated at 5000 cells/well in the 384-well plates and incubated at 37° C. for 2 h. 500 ng/mL of LPS was added after 2 hours and cells were incubated for another 22 hours at 37° C. Plates were spun in a centrifuge for 1 minute at […] and a mixture of anti-IL6 XL665, and anti-IL6 Cryptate diluted in reconstitution buffer (Cisbio Inc.) was added to each well. Following incubation for 3 hrs at room temperature, Homogeneous Time-Resolved Fluorescence (HTRF) was measured using the Envision (Perkin Elmer) at 665 nm and […]. The ratio of fluorescence at 665 nm to 620 nm was used as a readout for IL6 quantification. All samples were processed in duplicate. Readings were normalized to DMSO treated cells and normalized activities were utilized for EC50 calculations using the dose-response log (inhibitor) vs. response -variable slope (four parameters) nonlinear regression feature available in GraphPad Prism 5.0 (or Dotmatics).

CCCCC(=O)Nc1cncc(-c2ccc3[nH]nc(-c4cc5c(-c6ccccc6F)ccnc5[nH]4)c3c2)c1 [Compound 75, N-(5-(3-(4-(2-Fluorophenyl)-1H-pyrrolo[2,3-b]pyridin-2-yl)-1H-indazol-5-yl)pyridin-3-yl)pentanamide]
EC50 [1]: > 10 µM | inhibition at 10 µM [1]: 29.1% | inhibition at 10 µM [2]: 13% | EC50 [2]: > 10 µM | EC50 (SW480 colon cancer cells): > 10 µM | inhibition at 10 µM (SW480 colon cancer cells): 16.8% | EC50 [3]: > 10 µM | inhibition at 10 µM [3]: 38.2%

O=C(Nc1cncc(-c2ccc3[nH]nc(-c4cc5c(N6CCCCC6)ccnc5[nH]4)c3c2)c1)C1CC1 [Compound 188, N-(5-(3-(4-(Piperidin-1-yl)-1H-pyrrolo[2,3-b]pyridin-2-yl)-1H-indazol-5-yl)pyridin-3-yl)cyclopropanecarboxamide]
EC50 [1]: > 10 µM | inhibition at 10 µM [1]: 17.4% | inhibition at 10 µM [2]: 27.6% | EC50 [2]: > 10 µM | EC50 (SW480 colon cancer cells): > 10 µM | inhibition at 10 µM (SW480 colon cancer cells): 12.9% | EC50 [3]: > 10 µM | inhibition at 10 µM [3]: 4.1%

c1cc(N2CCCCC2)c2cc(-c3n[nH]c4ccc(-c5cncc(OC6CCCCC6)c5)cc34)[nH]c2n1 [Compound 607, 5-(5-(Cyclohexyloxy)pyridin-3-yl)-3-(4-(piperidin-1-yl)-1H-pyrrolo[2,3-b]pyridin-2-yl)-1H-indazole]
EC50 [1]: 7.1 µM | inhibition at 10 µM [2]: 28.4% | EC50 [2]: > 10 µM | EC50 (SW480 colon cancer cells): 8.58 µM | EC50 [3]: > 10 µM | inhibition at 10 µM [3]: 20%

CC(C)(C)CC(=O)Nc1cncc(-c2ccc3[nH]nc(-c4cc5c(-c6cccs6)ccnc5[nH]4)c3c2)c1 [Compound 352, 3,3-Dimethyl-N-(5-(3-(4-(thiophen-2-yl)-1H-pyrrolo[2,3-b]pyridin-2-yl)-1H-indazol-5-yl)pyridin-3-yl)butanamide]
EC50 [1]: 0.355 µM | EC50 [2]: 0.432 µM | EC50 (SW480 colon cancer cells): 0.872 µM | EC50 [3]: 0.073 µM

CCC(=O)Nc1cncc(-c2ccc3[nH]nc(-c4cc5c(N6CCCCC6)ccnc5[nH]4)c3c2)c1 [Compound 169, N-(5-(3-(4-(Piperidin-1-yl)-1H-pyrrolo[2,3-b]pyridin-2-yl)-1H-indazol-5-yl)pyridin-3-yl)propionamide]
EC50 [1]: > 10 µM | inhibition at 10 µM [1]: 11.6% | EC50 [2]: 1.22 µM | EC50 (SW480 colon cancer cells): > 10 µM | inhibition at 10 µM (SW480 colon cancer cells): 38.1% | EC50 [3]: > 10 µM | inhibition at 10 µM [3]: 33%

Fc1cccc(-c2ccnc3[nH]c(-c4n[nH]c5ccc(-c6ccccn6)cc45)cc23)c1 [Compound 28, 3-(4-(3-Fluorophenyl)-1H-pyrrolo[2,3-b]pyridin-2-yl)-5-(pyridin-2-yl)-1H-indazole]
EC50 [1]: > 10 µM | inhibition at 10 µM [1]: 12% | inhibition at 10 µM [2]: 8.5% | EC50 [2]: > 10 µM | EC50 (SW480 colon cancer cells): > 10 µM | inhibition at 10 µM (SW480 colon cancer cells): 12.9% | EC50 [3]: > 10 µM | inhibition at 10 µM [3]: 21%

c1ncc(-c2ccc3[nH]nc(-c4cc5c(-c6ccsc6)ccnc5[nH]4)c3c2)cn1 [Compound 307, 5-(Pyrimidin-5-yl)-3-(4-(thiophen-3-yl)-1H-pyrrolo[2,3-b]pyridin-2-yl)-1H-indazole]
EC50 [1]: > 10 µM | inhibition at 10 µM [1]: 0% | inhibition at 10 µM [2]: 6% | EC50 [2]: > 10 µM | EC50 (SW480 colon cancer cells): > 10 µM | inhibition at 10 µM (SW480 colon cancer cells): 0% | EC50 [3]: > 10 µM | inhibition at 10 µM [3]: 45.5%

c1cc(-c2ccnc3[nH]c(-c4n[nH]c5ccc(-c6cn[nH]c6)cc45)cc23)ccn1 [Compound 571, 5-(1H-Pyrazol-4-yl)-3-(4-(pyridin-4-yl)-1H-pyrrolo[2,3-b]pyridin-2-yl)-1H-indazole]
EC50 [1]: > 10 µM | inhibition at 10 µM [1]: 28.3% | inhibition at 10 µM [2]: 37% | EC50 [2]: > 10 µM | EC50 (SW480 colon cancer cells): > 10 µM | inhibition at 10 µM (SW480 colon cancer cells): 23.8% | EC50 [3]: > 10 µM | inhibition at 10 µM [3]: 37%

O=C(Nc1cncc(-c2ccc3[nH]nc(-c4cc5c(-c6ccc(F)cc6)ccnc5[nH]4)c3c2)c1)C1CCC1 [Compound 49, N-(5-(3-(4-(4-Fluorophenyl)-1H-pyrrolo[2,3-b]pyridin-2-yl)-1H-indazol-5-yl)pyridin-3-yl)cyclobutanecarboxamide]
EC50 [1]: > 10 µM | inhibition at 10 µM [1]: 3.2% | inhibition at 10 µM [2]: 10.6% | EC50 [2]: > 10 µM | EC50 (SW480 colon cancer cells): > 10 µM | inhibition at 10 µM (SW480 colon cancer cells): 11.8% | EC50 [3]: > 10 µM | inhibition at 10 µM [3]: 29.6%

Cc1ncc(-c2ccc3[nH]nc(-c4cc5c(-c6ccncc6)ccnc5[nH]4)c3c2)n1C [Compound 573, 5-(1,2-Dimethyl-1H-imidazol-5-yl)-3-(4-(pyridin-4-yl)-1H-pyrrolo[2,3-b]pyridin-2-yl)-1H-indazole]
EC50 [1]: > 10 µM | inhibition at 10 µM [1]: 113% | inhibition at 10 µM [2]: 8% | EC50 [2]: > 10 µM | EC50 (SW480 colon cancer cells): 1.15 µM | EC50 [3]: > 10 µM | inhibition at 10 µM [3]: 26.4%

CC(C)C(=O)Nc1cncc(-c2ccc3[nH]nc(-c4cc5c(-c6ccccc6F)ccnc5[nH]4)c3c2)c1 [Compound 65, N-(5-(3-(4-(2-Fluorophenyl)-1H-pyrrolo[2,3-b]pyridin-2-yl)-1H-indazol-5-yl)pyridin-3-yl)isobutyramide]
EC50 [1]: > 10 µM | inhibition at 10 µM [1]: 11.7% | inhibition at 10 µM [2]: 30.5% | EC50 [2]: > 10 µM | EC50 (SW480 colon cancer cells): > 10 µM | inhibition at 10 µM (SW480 colon cancer cells): 10.8% | EC50 [3]: > 10 µM | inhibition at 10 µM [3]: 34.9%

O=C(Nc1cncc(-c2ccc3[nH]nc(-c4cc5c(-c6ccccn6)ccnc5[nH]4)c3c2)c1)C1CCCCC1 [Compound 163, N-(5-(3-(4-(Pyridin-2-yl)-1H-pyrrolo[2,3-b]pyridin-2-yl)-1H-indazol-5-yl)pyridin-3-yl)cyclohexanecarboxamide]
EC50 [1]: > 10 µM | inhibition at 10 µM [1]: 0% | inhibition at 10 µM [2]: 38.8% | EC50 [2]: > 10 µM | EC50 (SW480 colon cancer cells): > 10 µM | inhibition at 10 µM (SW480 colon cancer cells): 11.1% | EC50 [3]: 1.54 µM

CC(C)CC(=O)Nc1cncc(-c2ccc3[nH]nc(-c4cc5c(-c6ccsc6)ccnc5[nH]4)c3c2)c1 [Compound 282, 3-Methyl-N-(5-(3-(4-(thiophen-3-yl)-1H-pyrrolo[2,3-b]pyridin-2-yl)-1H-indazol-5-yl)pyridin-3-yl)butanamide]
EC50 [2]: 2.1 µM | EC50 (SW480 colon cancer cells): 6.94 µM | EC50 [3]: 0.971 µM

COc1cncc(-c2ccc3[nH]nc(-c4cc5c(-c6ccsc6)ccnc5[nH]4)c3c2)c1 [Compound 676, 5-(5-Methoxypyridin-3-yl)-3-(4-(thiophen-3-yl)-1H-pyrrolo[2,3-b]pyridin-2-yl)-1H-indazole]
EC50 [1]: 7.78 µM | inhibition at 10 µM [2]: 21% | EC50 [2]: > 10 µM | EC50 (SW480 colon cancer cells): > 10 µM | inhibition at 10 µM (SW480 colon cancer cells): 0% | EC50 [3]: > 10 µM | inhibition at 10 µM [3]: 38.4%

COc1cncc(-c2ccc3[nH]nc(-c4cc5c(-c6ccco6)ccnc5[nH]4)c3c2)c1 [Compound 991, 3-(4-(Furan-2-yl)-1H-pyrrolo[2,3-b]pyridin-2-yl)-5-(5-methoxypyridin-3-yl)-1H-indazole]
inhibition at 10 µM [2]: 7.9% | EC50 [2]: > 10 µM | EC50 (SW480 colon cancer cells): > 10 µM | inhibition at 10 µM (SW480 colon cancer cells): 0% | EC50 [3]: 0.012 µM
